According to publication PMC4992173, “Divergent synthesis and identification of the cellular targets of deoxyelephantopins” (Nature Communications, 2016):

Target: T1, PPARγ (Homo sapiens, UniProt P37231)
T1 sequence (P37231 1-505): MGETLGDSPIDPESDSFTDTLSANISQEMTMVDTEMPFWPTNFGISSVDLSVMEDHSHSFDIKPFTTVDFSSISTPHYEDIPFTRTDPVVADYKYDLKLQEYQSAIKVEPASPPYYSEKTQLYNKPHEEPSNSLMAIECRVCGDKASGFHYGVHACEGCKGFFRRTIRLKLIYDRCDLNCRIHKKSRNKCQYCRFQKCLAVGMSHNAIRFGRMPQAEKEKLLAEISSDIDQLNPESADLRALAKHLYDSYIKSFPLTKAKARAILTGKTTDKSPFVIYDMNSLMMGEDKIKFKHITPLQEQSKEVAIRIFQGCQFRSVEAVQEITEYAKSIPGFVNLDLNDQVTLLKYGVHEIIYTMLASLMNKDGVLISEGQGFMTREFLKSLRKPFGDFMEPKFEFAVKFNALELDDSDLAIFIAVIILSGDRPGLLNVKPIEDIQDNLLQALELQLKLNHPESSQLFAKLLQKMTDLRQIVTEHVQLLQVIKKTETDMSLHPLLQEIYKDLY
Assay: Detection of a covalent adduct on human PPARγ (LC-MS/MS)
Type: binding
Design: purchased Cayman Chemical
Conditions: 100 μM, 1 h, tryptic digest LC-MS/MS
From the text: Finally, we sought to understand the molecular basis for PPARγ binding by the synthetic analogues of deoxyelephantopin through identification of the precise covalently modified amino acid site. There is literature precedent for oxidized fatty acids containing an α,β-unsaturated ketone to form a covalent bond with a cysteine in the ligand-binding site of PPARγ[53]. More recently, synthetic ligands binding reversibly to a distinct site were identified. […] Bearing in mind that the structurally simplified, and thus less prone to MS/MS fragmentation, probe 23c binds PPARγ as efficiently as 24c (Supplementary Fig. 13), we treated the recombinant nuclear receptor with the former compound, digested the protein and analysed the resulting peptides by LC–MS/MS. […]
Recombinant human PPARγ (500 ng in 9 μl PBS) was treated with 100 μM of 23c (1 μl of 10 × stock in DMSO) or DMSO for 1 h. […] Samples were resuspended in 0.1% FA in water and analysed by LC–MS/MS. The theoretical mass of the 23c adduct was calculated and LC–MS/MS was run with an inclusion list containing m/z and charge of the expected peptides. MS data were analysed in MaxQuant with 23c (+256.1099 Da) and carbamidomethylation as variable modifications on cysteine. […]

C#CCC[C@H](O)[C@H]1C(=C)C(=O)O[C@@H]1c1ccccc1 [23c]
protein site covalently modified: Cys190
